Measurements: patent publication US10633570B2, “Anti-ice nucleation activator” (THE SCHOOL CORPORATION KANSAI UNIVERSITY, priority 2015, dated 2020)

Assays:
Format in all cases: physicochemical
[1] = Anti-ice nucleation active performance (supercooling acceleration), droplet-freezing method of Vali, with silver iodide; conditions: 100 μL mixed with 900 μL silver iodide 1.0 mg/mL, average of three tests; for Anti-ice nucleation activity level (ΔT50 = BlankT50 − SampleT50): purine base aqueous solution 1.0 mg/mL, cooling 1.0° C./min
Protocol: Nine hundred microliters of an aqueous solution was prepared by dissolving silver iodide (produced by Wako Pure Chemical Industries, Ltd.) in ultra-pure water to a silver iodide concentration of 1.0 mg/mL.
(§1) A blank sample was prepared by mixing 100 μL of ultra-pure water with 900 μL of the aqueous solution in which silver iodide was dissolved.
(§2) The anti-ice nucleation active performance (supercooling acceleration performance) was measured by using the droplet-freezing method of Vali. More specifically, in accordance with the droplet-freezing method of Vali (FIG. 3), an aluminum film was placed on the copper plate of a cold plate chiller (CoolAce CCA-1000, Eyela), and the film was coated with a silicone oil suspension diluted with acetone and chloroform (a solution of acetone:chloroform=1:2). Then, each sample for evaluation or the blank sample was dropped (10 μL each) on 30 points of the surface, the temperature was decreased at a rate of 1.0° C./min, and the temperature at which 50% of the 30 droplets were frozen was considered to be T50.
(§3) The droplet-freezing temperature of each sample was referred to as SampleT50, and the droplet-freezing temperature of the blank sample was referred to as BlankT50. Then, the anti-ice nucleation activity level ΔT50 (° C.) was calculated by the following formula: Formula: ΔT50 (° C.)=BlankT50−SampleT50
Nine hundred microliters of an aqueous solution was prepared by dissolving silver iodide in ultra-pure water to a silver iodide concentration of 1.0 mg/mL.
as §1
(§4) The results are average values of the results of the test performed three times.
as §1, §4

Pseudomonas fluorescens = assay: Anti-ice nucleation active performance, droplet-freezing method of Vali, with Pseudomonas fluorescens as ice nucleation active substance; conditions: Example 1 solution (1.0 mg/mL); Pseudomonas fluorescens in place of silver iodide
Protocol: The anti-ice nucleation active performance (supercooling acceleration performance) was measured by using the droplet-freezing method of Vali. More specifically, in accordance with the droplet-freezing method of Vali (FIG. 3), an aluminum film was placed on the copper plate of a cold plate chiller (CoolAce CCA-1000, Eyela), and the film was coated with a silicone oil suspension diluted with acetone and chloroform (a solution of acetone:chloroform=1:2). […]
as §3
A sample for evaluation of Example 1 was prepared in a manner similar to that described in Test Example 1, except that Pseudomonas fluorescens, which is the Pseudomonas bacterium, was used in place of silver iodide, which is an ice nucleation active substance. The anti-ice nucleation active performance (supercooling acceleration performance) was measured by using a test method similar to that described in Test Example 1.

[2] = Anti-ice nucleation activity test with respect to biological material (beef liver), droplet-freezing method of Vali; conditions: final concentration 0.1 mg/mL, 10 μL dropped on 1 mm x 1 mm x 1 mm beef liver; blank ultra-pure water; average of three tests
Protocol: as §2
The droplet-freezing temperature of each sample was referred to as SampleT50, and the droplet-freezing temperature of the blank sample was referred to as BlankT50. Then, the anti-ice nucleation activity level ΔT50 (° C.) was calculated by the following formula: Formula: ΔT50 (° C.)=BlankT50−SampleT50 […]
The anti-ice nucleation active performance (supercooling acceleration performance) was measured by using a method similar to the droplet-freezing method of Vali described in Test Example 1. […]

[3] = adenine concentration series 0.1-6.0 (mM) per Example
[4] = polydeoxyadenylic acid with 6, 9 or 12 adenine bases, 1.0 mg/mL in TE buffer

Row | Compound | Anti-ice nucleation activity level (ΔT50) [1, 3] [°C] | Anti-ice nucleation activity level (ΔT50 = BlankT50 − SampleT50) [1] [°C] | other results
1 | Nc1ncnc2nc[nH]c12 [Example 1, adenine] | 9.2 | 9.2 | Anti-ice nucleation active performance (ΔT50) (Pseudomonas fluorescens): 1.0 °C; Anti-ice nucleation activity level with respect to beef liver [2]: 0.9 °C
2 | Nc1nc2nc[nH]c2c(=O)[nH]1 [Example 2, Guanine] |  | 1.0 | 
3 | O=c1[nH]cnc2nc[nH]c12 [Example 3, Hypoxanthine] |  | 2.1 | 
4 | Cn1cnc2c1c(=O)[nH]c(=O)n2C [Example 4, Theobromine] |  | 1.2 | 
5 | Cn1c(=O)c2c(ncn2C)n(C)c1=O [Example 5, Caffeine] |  | 1.3 | Anti-ice nucleation activity level with respect to beef liver [2]: 0.7 °C
6 | O=c1[nH]c(=O)c2[nH]c(=O)[nH]c2[nH]1 [Example 6, Uric acid] |  | 1.8 | 
7 | Cn1c(=O)c2[nH]cnc2n(C)c1=O [Example 7, Theophylline] |  | 2.0 | 
8 | Nc1ncnc2nc[nH]c12 [Example 8, adenine] | 1.7 |  | 
9 | Nc1ncnc2nc[nH]c12 [Example 9, adenine] | 2.3 |  | 
10 | Nc1ncnc2nc[nH]c12 [Example 10, adenine] | 4.3 |  | 
11 | Nc1ncnc2nc[nH]c12 [Example 11, adenine] | 4.9 |  | 
12 | Nc1ncnc2nc[nH]c12 [Example 12, adenine] | 7.8 |  | 
13 | Nc1ncnc2nc[nH]c12 [Example 13, adenine] | 6.7 |  | 
14 | Nc1ncnc2nc[nH]c12 [Example 14, adenine] | 7.2 |  | 
15 | polydeoxyadenylic acid [Example 15] |  |  | Anti-ice nucleation activity level (ΔT50) [1, 4]: 1.26 °C
16 | polydeoxyadenylic acid [Example 16] |  |  | Anti-ice nucleation activity level (ΔT50) [1, 4]: 1.43 °C
17 | polydeoxyadenylic acid [Example 17] |  |  | Anti-ice nucleation activity level (ΔT50) [1, 4]: 1.60 °C
